Results on 1 compound are retold here after PMC5342196 (PLoS ONE, 2017).

Each structure is given as a SMILES string.

The assay relates to Lac161_ORF7. In words: glucose release, glucose oxidase/peroxidase assay. The format is biochemical, metagenome: corn field soil. The note with it: 100 mM MES pH 6.0, 50 °C (methods print Lac161_ORF3 for this temperature), 30 min.

As for `OC[C@H]1O[C@@H](O[C@H]2[C@H](O)[C@@H](O)C(O)O[C@@H]2CO)[C@H](O)[C@@H](O)[C@H]1O` (stereo partly shown) [lactose], the Km (commonly the substrate concentration at which the rate is half of its maximum) came to 1800 µM.
